The values below come from patent publication US8741912B2, “Deazapurines useful as inhibitors of Janus kinases” (Vertex Pharmaceuticals Incorporated, priority 2006, dated 2014).

One assay concerns the target T1, JAK3 (Homo sapiens, UniProt P52333).
T1 sequence (P52333 1-1124): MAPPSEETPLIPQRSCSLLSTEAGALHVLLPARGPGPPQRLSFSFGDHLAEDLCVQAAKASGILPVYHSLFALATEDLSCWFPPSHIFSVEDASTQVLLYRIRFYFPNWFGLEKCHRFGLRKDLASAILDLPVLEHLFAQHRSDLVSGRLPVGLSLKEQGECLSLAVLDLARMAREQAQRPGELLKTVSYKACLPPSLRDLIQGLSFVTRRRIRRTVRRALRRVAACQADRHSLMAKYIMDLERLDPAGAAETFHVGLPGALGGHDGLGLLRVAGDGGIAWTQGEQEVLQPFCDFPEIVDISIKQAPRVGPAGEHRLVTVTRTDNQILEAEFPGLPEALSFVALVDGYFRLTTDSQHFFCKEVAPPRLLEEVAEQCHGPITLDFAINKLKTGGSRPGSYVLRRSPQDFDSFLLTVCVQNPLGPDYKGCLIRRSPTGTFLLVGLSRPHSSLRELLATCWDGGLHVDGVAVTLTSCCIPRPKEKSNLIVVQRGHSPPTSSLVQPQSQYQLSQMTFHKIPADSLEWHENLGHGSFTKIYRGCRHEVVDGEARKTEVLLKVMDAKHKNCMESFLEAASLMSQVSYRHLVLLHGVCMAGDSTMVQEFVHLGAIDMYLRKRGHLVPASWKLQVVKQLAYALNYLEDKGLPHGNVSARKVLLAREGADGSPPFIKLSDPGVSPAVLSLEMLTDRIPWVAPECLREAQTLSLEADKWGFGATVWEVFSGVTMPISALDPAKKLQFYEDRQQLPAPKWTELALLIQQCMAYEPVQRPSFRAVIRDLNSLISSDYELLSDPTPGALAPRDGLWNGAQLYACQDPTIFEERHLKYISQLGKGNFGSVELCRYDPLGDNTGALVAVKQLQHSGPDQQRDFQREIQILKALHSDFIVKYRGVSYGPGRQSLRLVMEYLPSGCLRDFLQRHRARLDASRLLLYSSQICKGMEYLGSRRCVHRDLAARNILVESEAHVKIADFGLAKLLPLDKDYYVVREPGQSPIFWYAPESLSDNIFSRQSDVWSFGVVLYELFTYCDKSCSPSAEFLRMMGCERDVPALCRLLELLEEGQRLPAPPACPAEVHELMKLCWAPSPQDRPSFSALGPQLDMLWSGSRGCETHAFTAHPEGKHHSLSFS
The assay can be described thus: JAK3 inhibition assay (33P incorporation into poly(Glu)4Tyr). The following applies: 1 nM JAK3; 1 μM poly(Glu)4Tyr, 5 μM ATP, 25° C.; read-out: JAK3 enzyme inhibition (Ki). It counts as biochemical. The procedure: (§1) Compounds were screened for their ability to inhibit JAK3 using the assay shown below. Reactions were carried out in a kinase buffer containing 100 mM HEPES (pH 7.4), 1 mM DTT, 10 mM MgCl2, 25 mM NaCl, and 0.01% BSA. Substrate concentrations in the assay were 5 μM ATP (200 uCi/μmole ATP) and 1 μM poly(Glu)4Tyr. Reactions were carried out at 25° C. and 1 nM JAK3.
(§2) To each well of a 96 well polycarbonate plate was added 1.5 μl of a candidate JAK3 inhibitor along with 50 μl of kinase buffer containing 2 μM poly(Glu)4Tyr and 10 μM ATP. This was then mixed and 50 μl of kinase buffer containing 2 nM JAK3 enzyme was added to start the reaction. After 20 minutes at room temperature (25° C.), the reaction was stopped with 50 μl of 20% trichloroacetic acid (TCA) that also contained 0.4 mM ATP. The entire contents of each well were then transferred to a 96 well glass fiber filter plate using a TomTek Cell Harvester. After washing, 60 μl of scintillation fluid was added and ^33P incorporation detected on a Perkin Elmer TopCount.

The target of another assay is JAK-2 enzyme (Homo sapiens, UniProt O60674). Nature of the assay: JAK2 inhibition assay (33P incorporation into poly(Glu)4Tyr). It counts as biochemical. The following applies: 15 μM poly(Glu)4Tyr, 12 μM ATP. The protocol:
as §1, §2
The assays were as described above in Example 36 except that JAK-2 enzyme was used, the final poly(Glu)4Tyr concentration was 15 μM, and final ATP concentration was 12 μM.

Each structure is given as a SMILES string.

JAK-2 enzyme, sequence (O60674 whole entry): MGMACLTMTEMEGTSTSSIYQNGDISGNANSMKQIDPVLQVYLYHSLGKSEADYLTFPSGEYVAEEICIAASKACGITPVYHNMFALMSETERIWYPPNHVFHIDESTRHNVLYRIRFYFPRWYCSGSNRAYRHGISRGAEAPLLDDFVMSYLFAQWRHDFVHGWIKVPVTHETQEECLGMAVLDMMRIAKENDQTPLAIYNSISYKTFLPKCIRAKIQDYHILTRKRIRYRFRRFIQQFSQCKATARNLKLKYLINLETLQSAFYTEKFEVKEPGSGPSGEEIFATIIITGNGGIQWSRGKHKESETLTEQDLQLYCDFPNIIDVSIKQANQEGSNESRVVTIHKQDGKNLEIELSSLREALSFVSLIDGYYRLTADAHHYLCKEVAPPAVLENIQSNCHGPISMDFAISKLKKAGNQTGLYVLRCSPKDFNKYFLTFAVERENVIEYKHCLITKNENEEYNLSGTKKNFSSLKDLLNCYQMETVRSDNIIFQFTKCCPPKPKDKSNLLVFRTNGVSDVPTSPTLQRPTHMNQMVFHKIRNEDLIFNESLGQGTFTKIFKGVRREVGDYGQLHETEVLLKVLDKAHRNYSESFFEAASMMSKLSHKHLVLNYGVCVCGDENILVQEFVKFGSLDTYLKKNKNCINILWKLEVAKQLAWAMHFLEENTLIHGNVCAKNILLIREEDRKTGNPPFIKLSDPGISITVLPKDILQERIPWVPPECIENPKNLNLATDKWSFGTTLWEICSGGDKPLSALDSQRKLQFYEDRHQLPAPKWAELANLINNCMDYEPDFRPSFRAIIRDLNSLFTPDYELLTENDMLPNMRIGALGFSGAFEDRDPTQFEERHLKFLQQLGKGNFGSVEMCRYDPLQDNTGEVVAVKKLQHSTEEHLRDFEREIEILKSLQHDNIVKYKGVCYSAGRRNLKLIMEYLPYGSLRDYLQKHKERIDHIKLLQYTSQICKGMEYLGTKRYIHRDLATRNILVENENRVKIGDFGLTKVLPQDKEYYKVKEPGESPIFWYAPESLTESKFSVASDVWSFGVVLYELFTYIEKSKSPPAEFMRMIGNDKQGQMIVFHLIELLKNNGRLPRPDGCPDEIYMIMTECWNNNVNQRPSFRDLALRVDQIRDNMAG

On to `CN(CC#N)C(=O)c1cc(-c2ncnc3[nH]ccc23)cn1C` [Compound 236], for which the Ki (commonly the dissociation constant of the complex between target and ligand, obtained from inhibition or displacement) on JAK3 is 0.1 to 0.5 µM; at JAK-2 enzyme, < 0.1 µM.
